We go through ten compounds from ChEMBL document CHEMBL1201862, “PubChem BioAssay data set” (2004).

Structures are written as SMILES.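 Assay format: 96-well plates, 48-hour exposure. GI50: concentration for 50% inhibition of growth.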 Calls of active or inactive are those of the source. Cut-off read from the data, not from the text of the source: active = GI50 up to about 1.1 µM and inactive = higher.

Test systems include ACHN; RPMI-8226; A498; OVCAR-3; MCF7; SNB-19; SK-MEL-2; OVCAR-4; MDA-MB-435; Malme-3M; MOLT-4; NCI-H23; NCI-H522; UACC-257; PC-3; CAKI-1; NCI/ADR-RES; TK-10; OVCAR-5; HCT-116.
Assay in all cases: growth of human tumour cells (NCI), 48 h

For `NC(Cc1c[nH]c2ccc([N+](=O)[O-])cc12)C(=O)O` (stereo not given), the GI50 with ACHN, with RPMI-8226, with A498, with OVCAR-3, with MCF7 and in the test with SNB-19 was > 100 µM (inactive) each time. For the same compound, the GI50 in the test with SK-MEL-2, in the test with OVCAR-4, in the test on MDA-MB-435, in the test on Malme-3M, with MOLT-4 and with NCI-H23 was > 100 µM (inactive) throughout. The GI50 in the test with NCI-H522, in the test on UACC-257, in the test with PC-3, in the test on CAKI-1, in the test with NCI/ADR-RES and in the test on TK-10 was > 100 µM (inactive) in each case. The GI50 in the test on OVCAR-5 and in the test on HCT-116 was > 100 µM (inactive) throughout.

On to `Cn1c(=O)c2nc(CCCCc3nc4ccccc4[nH]3)[nH]c2n(C)c1=O`, for which the GI50 in the test with ACHN, with RPMI-8226, in the test with A498, in the test with OVCAR-3, in the test with MCF7 and with SNB-19 was > 100 µM (inactive) each time. Further, the GI50 in the test with SK-MEL-2, in the test with OVCAR-4, in the test on MDA-MB-435, with Malme-3M, in the test with MOLT-4 and in the test with NCI-H23 was > 100 µM (inactive) throughout. Further, the GI50 was > 100 µM (inactive) in the test on NCI-H522; > 100 µM (inactive) in the test on UACC-257; > 100 µM (inactive) in the test on PC-3; 50.8 µM (inactive) in the test with CAKI-1; > 100 µM (inactive) in the test with NCI/ADR-RES; > 100 µM (inactive) in the test on TK-10. The GI50 in the test on OVCAR-5 and in the test on HCT-116 was > 100 µM (inactive) in each case.

`N#CC(C#N)=CNCCN1CCN(C=C(C#N)C#N)CC1`: the GI50 in the test with ACHN, in the test on RPMI-8226, with A498, in the test with OVCAR-3, in the test with MCF7 and with SNB-19 was > 100 µM (inactive) in each case. In addition, the GI50 in the test with SK-MEL-2, in the test on OVCAR-4, in the test on MDA-MB-435, in the test with Malme-3M, in the test on MOLT-4 and with NCI-H23 was > 100 µM (inactive) in each case. Besides, the GI50 in the test with NCI-H522, in the test on UACC-257, in the test on PC-3, in the test on CAKI-1, with NCI/ADR-RES and in the test with TK-10 was > 100 µM (inactive) throughout. For the same compound, the GI50 with OVCAR-5 and with HCT-116 was > 100 µM (inactive) in each case.

For the compound `CCSc1s/c(=N/c2ccc(/N=c3\sc(C)c(SC)s3)cc2)sc1-c1ccc(C)cc1`, the GI50 with ACHN, with RPMI-8226, with A498, in the test with OVCAR-3, in the test on MCF7 and in the test on SNB-19 was > 100 µM (inactive) in each case. The GI50 in the test on SK-MEL-2, with OVCAR-4, in the test on MDA-MB-435, with Malme-3M, in the test on MOLT-4 and in the test on NCI-H23 was > 100 µM (inactive) each time. The GI50 in the test on NCI-H522, with UACC-257, with PC-3, with CAKI-1, with NCI/ADR-RES and in the test with TK-10 was > 100 µM (inactive) throughout. In addition, the GI50 in the test on OVCAR-5 and in the test on HCT-116 was > 100 µM (inactive) throughout.

On to `O=C1CSC(/C=C/c2ccccc2)N1c1ccc(-n2c(-c3ccccc3)nc3ccccc3c2=O)cc1` (stereo not given), for which the GI50 with ACHN was > 10 µM (inactive); in the test with RPMI-8226, > 100 µM (inactive); in the test on A498, > 100 µM (inactive); in the test on OVCAR-3, > 100 µM (inactive); in the test with MCF7, 52.2 µM (inactive); with SNB-19, > 100 µM (inactive). Further, the GI50 in the test on SK-MEL-2 is > 100 µM (inactive); with OVCAR-4, 19.4 µM (inactive); with MDA-MB-435 it was > 100 µM (inactive); in the test on Malme-3M, > 100 µM (inactive); in the test on MOLT-4, 30.9 µM (inactive); with NCI-H23, > 100 µM (inactive). For the same compound, the GI50 with NCI-H522 was 50.6 µM (inactive); with UACC-257 it was > 100 µM (inactive); with PC-3, 61.2 µM (inactive); with CAKI-1, > 100 µM (inactive); in the test with NCI/ADR-RES it was 59.2 µM (inactive); in the test with TK-10, > 100 µM (inactive). Moreover, the GI50 in the test with OVCAR-5 and in the test on HCT-116 was > 100 µM (inactive) throughout.

With `O=c1[nH]nc(Cc2ccccc2)n1/N=C/c1c[nH]c2ccccc12`, the GI50 in the test with ACHN is > 100 µM (inactive); in the test with RPMI-8226 it was > 100 µM (inactive); with A498, > 100 µM (inactive); in the test with OVCAR-3, > 100 µM (inactive); in the test with MCF7, > 100 µM (inactive); in the test with SNB-19, 49.5 µM (inactive). Further, the GI50 is > 100 µM (inactive) with SK-MEL-2; 42.5 µM (inactive) in the test with OVCAR-4; 81.7 µM (inactive) in the test with MDA-MB-435; 57.1 µM (inactive) in the test on Malme-3M; > 100 µM (inactive) in the test on MOLT-4; > 100 µM (inactive) in the test with NCI-H23. For the same compound, the GI50 with NCI-H522 is 22.9 µM (inactive); in the test on UACC-257, 96.2 µM (inactive); with PC-3 it was 92 µM (inactive); in the test with CAKI-1 it was 16.7 µM (inactive); in the test on NCI/ADR-RES, 82.6 µM (inactive); with TK-10, 35.3 µM (inactive). Moreover, the GI50 with OVCAR-5 and in the test on HCT-116 was > 100 µM (inactive) each time.

As for `O=CN1CCN(C(=O)c2cc(Cl)cc(Cl)c2)C1=S`, the GI50 in the test on ACHN was 16.9 µM (inactive); with RPMI-8226, 2.44 µM (inactive); in the test on A498, 15.3 µM (inactive); with OVCAR-3, 14.8 µM (inactive); in the test with MCF7, 3.47 µM (inactive); in the test on SNB-19, 20.5 µM (inactive). Further, the GI50 in the test on SK-MEL-2 is 16.9 µM (inactive); in the test on OVCAR-4 it was 17.1 µM (inactive); in the test on MDA-MB-435 it was 14.2 µM (inactive); in the test with Malme-3M it was 3.12 µM (inactive); in the test on MOLT-4 it was 15 µM (inactive); with NCI-H23, 17.2 µM (inactive). Besides, the GI50 is 3.5 µM (inactive) with NCI-H522; 17.4 µM (inactive) with UACC-257; 16.6 µM (inactive) in the test with PC-3; 13.3 µM (inactive) in the test on CAKI-1; 28.9 µM (inactive) with NCI/ADR-RES; 15.3 µM (inactive) in the test with TK-10. The GI50 with OVCAR-5 is 21.9 µM (inactive); in the test on HCT-116, 18.6 µM (inactive).

As for `CCOC(=O)c1cc(C#N)[nH]c1-c1ccsc1`, the GI50 was 39.5 µM (inactive) in the test on ACHN; 23.6 µM (inactive) in the test with RPMI-8226; 42.7 µM (inactive) in the test with A498; 31 µM (inactive) in the test on OVCAR-3; 14.3 µM (inactive) in the test with MCF7; 56.1 µM (inactive) in the test on SNB-19. Also, the GI50 with SK-MEL-2 was 46.7 µM (inactive); in the test with OVCAR-4, 35.6 µM (inactive); in the test with MDA-MB-435, 23.1 µM (inactive); in the test on Malme-3M, 37.4 µM (inactive); in the test on MOLT-4, 15.3 µM (inactive); in the test on NCI-H23, 35.5 µM (inactive). For the same compound, the GI50 with NCI-H522 is 30.3 µM (inactive); in the test on UACC-257, 36.2 µM (inactive); in the test with PC-3 it was 25.5 µM (inactive); with CAKI-1, 50.7 µM (inactive); with NCI/ADR-RES, 32.4 µM (inactive); with TK-10, 38.5 µM (inactive). The GI50 in the test with OVCAR-5 is 34.8 µM (inactive); with HCT-116, 38.4 µM (inactive).

On to `CC(=O)/C=c1\[nH]/c(=C\C=C\c2ccccc2)c(=O)n1/C=C1\C(=O)Oc2ccccc2C1=O`, for which the GI50 was > 100 µM (inactive) in the test with ACHN; > 100 µM (inactive) in the test on RPMI-8226; 15.3 µM (inactive) in the test with A498; > 100 µM (inactive) in the test with OVCAR-3; > 100 µM (inactive) with MCF7; > 100 µM (inactive) in the test with SNB-19. Besides, the GI50 in the test on SK-MEL-2, in the test with OVCAR-4, with MDA-MB-435, with Malme-3M, with MOLT-4 and in the test on NCI-H23 was > 100 µM (inactive) in each case. The GI50 in the test with NCI-H522, in the test with UACC-257, with PC-3, in the test on CAKI-1, with NCI/ADR-RES and in the test with TK-10 was > 100 µM (inactive) in each case. In addition, the GI50 with OVCAR-5 and with HCT-116 was > 100 µM (inactive) throughout.

Turning to `COc1ccc(Oc2cnn(C(Br)(Br)C(C)=O)c(=O)c2Br)cc1`, the GI50 in the test with ACHN was 13.6 µM (inactive); with RPMI-8226, 3.14 µM (inactive); in the test on A498, 24.8 µM (inactive); in the test with OVCAR-3 it was 4.19 µM (inactive); with MCF7, 15.4 µM (inactive); in the test with SNB-19, 24.5 µM (inactive). Moreover, the GI50 in the test on SK-MEL-2 is 16.3 µM (inactive); in the test on OVCAR-4, 17.4 µM (inactive); in the test on MDA-MB-435, 10 µM (inactive); in the test with Malme-3M, 17.1 µM (inactive); in the test with MOLT-4, 0.861 µM (active); with NCI-H23 it was 17.9 µM (inactive). The GI50 was 4.56 µM (inactive) in the test with NCI-H522; 15.1 µM (inactive) in the test on UACC-257; 14.1 µM (inactive) in the test with PC-3; 10.8 µM (inactive) in the test with CAKI-1; 18.5 µM (inactive) in the test with NCI/ADR-RES; 13.5 µM (inactive) in the test on TK-10. For the same compound, the GI50 in the test with OVCAR-5 is 17.7 µM (inactive); with HCT-116, 7 µM (inactive).
